Assay results published in PubChem BioAssay AID651794 (The Scripps Research Institute Molecular Screening Center, 2012).
The source made the active and inactive calls. No rule for the calls is given here.

What follows are compounds tested on cell-based VP16 transactivation counterscreen, luciferase luminescence (assay: VP16 transactivation reporter inhibitors, late-stage follow-up, counter-screen for SRC1 inhibitor project, cell-based, luminescence, dose response (AID 651794)).
`COc1cc([C@@H]2c3cc4c(cc3C(OC3OC5COC(C)OC5C(O)C3O)C3COC(=O)[C@@H]32)OCO4)cc(OC)c1O` (stereo partly drawn) was tested, and the IC50 was > 35.9 µM (inactive). For `COc1ccc(NC(=O)CN(C)C(=O)C2(c3ccccc3)CCCC2)cc1`, the IC50 was > 35.9 µM (inactive). With `COc1ccc(Nc2ncnc3ccc(Br)cc23)c(OC)c1` the IC50 was 36.2 µM (inactive).
